Each block holds one molecule with its values, some of them ahead of it. Active and inactive are the calls of the source. The rule behind the calls is not given here.
What was measured:
DBTRG-05MG [1] = assay: Induction of cell cycle arrest in human DBTRG-05MG cells assessed as accumulation at S phase at 206 uM after 24 hrs by propidium iodide staining based flow cytometric analysis (reference value: 22.76 +/- 1.56%); assay type: functional
RG2 [2] = assay: Inhibition of p38 phosphorylation at Tyr182 residues in rat RG2 cells at 206 uM after 48 hrs by Western blot analysis (reference value: 1); assay type: cell-based
RG2 [3] = assay: Induction of apoptosis in rat RG2 cells assessed as Bax expression at 206 uM after 48 hrs by Western blot analysis (reference value: 1); assay type: functional
DBTRG-05MG [4] = assay: Induction of cell cycle arrest in human DBTRG-05MG cells assessed as accumulation at G2/M phase at 206 uM after 48 hrs by propidium iodide staining based flow cytometric analysis (reference value: 30.08 +/- 0.1%); assay type: functional
[5] = biological target: MAP kinase p38 (Homo sapiens) (UniProt O15264+Q15759+Q16539+P53778); assay: Inhibition of p38 phosphorylation at Tyr182 residues in human DBTRG-05MG cells at 206 uM after 48 hrs by Western blot analysis (reference value: 1); assay type: cell-based
DBTRG-05MG [6] = assay: Induction of cell cycle arrest in human DBTRG-05MG cells assessed as accumulation at S phase at 206 uM after 12 hrs by propidium iodide staining based flow cytometric analysis (reference value: 22.76 +/- 1.56%); assay type: functional
DBTRG-05MG [7] = assay: Inhibition of JNK phosphorylation at Thr183/Tyr185 residues in human DBTRG-05MG cells at 112.4uM after 48 hrs by Western blot analysis (reference value: 1); assay type: cell-based
RG2 [8] = assay: Induction of apoptosis in rat RG2 cells assessed as increase in apoptotic body formation at 112.4 uM after 48 hrs by TUNEL assay; assay type: functional, cell-based
DBTRG-05MG [9] = assay: Induction of cell cycle arrest in human DBTRG-05MG cells assessed as accumulation at G2/M phase at 112.4 uM after 24 hrs by propidium iodide staining based flow cytometric analysis (reference value: 30.08 +/- 0.1%); assay type: functional
RG2 [10] = assay: Synergistic cytotoxicity against rat RG2 cells assessed as synergistic effect index at 134.9 uM after 48 hrs in presence of 103 uM TMZ by MTT assay; assay type: functional
DBTRG-05MG [11] = assay: Induction of cell cycle arrest in human DBTRG-05MG cells assessed as accumulation at G0/G1 phase at 112.4 uM after 48 hrs by propidium iodide staining based flow cytometric analysis (reference value: 47.16 +/- 1.55%); assay type: functional
DBTRG-05MG [12] = assay: Potentiation of TMZ-induced antitumor activity against human DBTRG-05MG cells xenografted in BALB/c nude mouse assessed as reduction in tumour growth at 75 mg/kg, sc co-treated with TMZ for 18 days; assay type: functional, organism-based; details: time 18.0 day
RG2 [13] = assay: Induction of cell cycle arrest in rat RG2 cells assessed as accumulation at G0/G1 phase at 112.4 uM after 12 hrs by propidium iodide staining based flow cytometric analysis (reference value: 57.81 +/- 1.9%); assay type: functional
[14] = Effect on p38 expression in rat RG2 cells at 112.4uM after 48 hrs in presence of TMZ by Western blot analysis (reference value: 1); assay type: functional
[15] = Effect on ERK expression in human DBTRG-05MG cells at 112.4uM after 48 hrs in presence of TMZ by Western blot analysis (reference value: 1); assay type: functional
DBTRG-05MG [16] = assay: Induction of apoptosis in human DBTRG-05MG cells assessed as cleaved PARP expression at 112.4 uM after 48 hrs by Western blot analysis (reference value: 1); assay type: functional
DBTRG-05MG [17] = assay: Induction of apoptosis in human DBTRG-05MG cells assessed as phosphorylated caspace-3 expression at 112.4 uM after 48 hrs in presence of TMZ by Western blot analysis (reference value: 1); assay type: functional
DBTRG-05MG [18] = assay: Antitumour activity against human DBTRG-05MG cells xenografted in BALB/c nude mouse assessed as reduction in tumour growth at 75 mg/kg, sc for every 2 days for 20 days and measured every 2 days; assay type: functional, organism-based; details: time 20.0 day
[19] = Synergistic cytotoxicity against rat CTX TNA2 cells assessed as synergistic effect index at 134.9 uM after 48 hrs in presence of 309 uM TMZ by MTT assay; assay type: cell-based; details: ctx tna2, 48 h
[20] = Synergistic cytotoxicity against rat CTX TNA2 cells assessed as combination index at 134.9 uM after 48 hrs in presence of 103 uM TMZ by MTT assay; assay type: cell-based; details: ctx tna2, 48 h
DBTRG-05MG [21] = assay: Synergistic cytotoxicity against human DBTRG-05MG cells assessed as synergistic effect index at 112.4 uM after 48 hrs in presence of 206 uM TMZ by MTT assay; assay type: functional
DBTRG-05MG [22] = assay: Induction of cell cycle arrest in human DBTRG-05MG cells assessed as CDK4 expression at 112.4 uM after 48 hrs in presence of TMZ by Western blot analysis (reference value: 1); assay type: functional
[23] = Effect on JNK expression in rat RG2 cells at 112.4uM after 48 hrs by Western blot analysis (reference value: 1); assay type: functional
DBTRG-05MG [24] = assay: Inhibition of ERK phosphorylation at Tyr204 residues in human DBTRG-05MG cells at 112.4uM after 48 hrs by Western blot analysis (reference value: 1); assay type: cell-based
DBTRG-05MG [25] = assay: Induction of apoptosis in human DBTRG-05MG cells assessed as cleaved PARP expression at 112.4 uM after 48 hrs in presence of TMZ by Western blot analysis (reference value: 1); assay type: functional
[26] = Toxicity in BALB/c mouse xenografted with DBTRG-05MG cells assessed as inflammatory cell infiltration score in liver at 75 mg/kg, sc co-treated with TMZ for 18 days by H and E staining-based bright field microscopic analysis; assay type: organism-based; details: in vivo, 432 h, time 18 day
RG2 [27] = assay: Induction of cell cycle arrest in rat RG2 cells assessed as accumulation at G0/G1 phase at 112.4 uM after 12 hrs in presence of TMZ by propidium iodide staining based flow cytometric analysis (reference value: 57.81 +/- 1.9%); assay type: functional
[28] = Inhibition of TMZ-induced drug resistance in human DBTRG-05MG cells assessed as MDR1 expression at 112.4 uM after 48 hrs by Western blot analysis (reference value: 1.5); assay type: functional
RG2 [29] = assay: Induction of cell cycle arrest in rat RG2 cells assessed as accumulation at G2/M phase at 112.4 uM after 24 hrs in presence of TMZ by propidium iodide staining based flow cytometric analysis (reference value: 20.04 +/- 0.55%); assay type: functional
RG2 [30] = assay: Synergistic cytotoxicity against rat RG2 cells assessed as combination index at 134.9 uM after 48 hrs in presence of 412.1 uM TMZ by MTT assay; assay type: functional
DBTRG-05MG [31] = assay: Induction of apoptosis in human DBTRG-05MG cells assessed as cleaved caspace-9 expression at 112.4 uM after 48 hrs in presence of TMZ by Western blot analysis (reference value: 1); assay type: functional
DBTRG-05MG [32] = assay: Induction of apoptosis in human DBTRG-05MG cells assessed as phosphorylated PARP expression at 112.4 uM after 48 hrs in presence of TMZ by Western blot analysis (reference value: 1); assay type: functional

fold change (FC) [5]: 1.2
Compound: Cn1nnc2c(C(N)=O)ncn2c1=O [TEMOZOLOMIDE]
Activity (DBTRG-05MG [1]): 25.43% | fold change (FC) (RG2 [2]): 1.3 | fold change (FC) (RG2 [3]): 1.1 | Activity (DBTRG-05MG [4]): 53.64% | Activity (DBTRG-05MG [6]): 22.29%

Compound: C[C@@H]1CC[C@H]2C(C)(C)[C@H]3C[C@@]12CC[C@@]3(C)O [CEDROL]
fold change (FC) (DBTRG-05MG [7]): 1 | Activity (RG2 [8]): Active | Activity (DBTRG-05MG [9]): 26.38% | Activity_index (RG2 [10]): 0.9 | Activity (DBTRG-05MG [11]): 53.13% | Activity (DBTRG-05MG [12]): Active | Activity (RG2 [13]): 64.98% | fold change (FC) [14]: 0.5 | fold change (FC) [15]: 0.8 | fold change (FC) (DBTRG-05MG [16]): 1 | fold change (FC) (DBTRG-05MG [17]): 1.2 | Activity (DBTRG-05MG [18]): Active | Activity_index [19]: 0.52 | CI [20]: 1.23 | Activity_index (DBTRG-05MG [21]): 0.88 | fold change (FC) (DBTRG-05MG [22]): 0.6 | fold change (FC) [23]: 0.8 | fold change (FC) (DBTRG-05MG [24]): 0.9 | fold change (FC) (DBTRG-05MG [25]): 1.9 | Activity [26]: 1.23 | Activity (RG2 [27]): 61.92% | fold change (FC) [28]: 0.7 | Activity (RG2 [29]): 26.19% | CI (RG2 [30]): 0.93 | fold change (FC) (DBTRG-05MG [31]): 3.4 | fold change (FC) (DBTRG-05MG [32]): 0.4

Reference: ChEMBL document CHEMBL4699511, “Cedrol, a Sesquiterpene Alcohol, Enhances the Anticancer Efficacy of Temozolomide in Attenuating Drug Resistance via Regulation of the DNA Damage Response and MGMT Expression” (J Nat Prod, 2020)
